Experimental data: patent US20140094484A1, “SUSTAINED DELIVERY FORMULATIONS OF RAPAMYCIN COMPOUNDS” (QLT Inc., priority 2012, published 2014)
“Also recorded” adds a separate entry of the source.

Columns and labels:
[1] = tested on: choroidal neovascularization (CNV); test: Laser-induced CNV rat model, fluorescein angiography evaluation; format: in vivo, Long Evans rats; conditions: for effect on CNV development: intravitreal injection immediately after laser photocoagulation
Description: (§1) Thermal laser infrared light (diode laser 810 nm) at 200 mW for 0.075 seconds was delivered to the fundus of Long Evans rats using a slit lamp and a slit lamp adaptor. A total of 6 lesions with 75 μm diameter were placed in a circular pattern surrounding the optic disc on the posterior pole.
(§2) Intravitreal injection was performed immediately after laser photocoagulation. Briefly, three days prior to the injection, 0.3% Ciloxan ointment was applied to the eye once daily. At the time of injection, the eye pocket was irrigated and the conjunctiva swabbed with 1.0% Betadine solution. A 30-gauge needle connected to a 10-4, Hamilton syringe that contained 5 μL carboxymethylcellulose (CMC)-based Rapamycin suspension (0.5, 5, 10 or 40 mg/mL) or CMC vehicle alone was inserted 1 mm posterior to the corneoscleral limbus. The injection began when the bevel of the needle faced down and reached the vitreous about 1-2 mm in depth with the visual aid of a dissecting microscope. After injection, topical 0.3% Ciloxan ointment was applied to the eye once daily for 2 days.
FA was performed on the 14th day after intravitreal injection of Rapamycin. Briefly, a 25-gauge butterfly catheter was placed in the tail vein on an anesthetized animal and a Heparin-Lock solution (0.50 mL of 10,000 IU/mL Heparin Sodium with 0.95 mL 0.9% Saline) was used to fill the catheter line to maintain intravenous access. A dose of 10 mg/kg of Diofluor 10% (Fluorescein Sodium 10%) was delivered through the tail vein, followed by a flush of sterile saline to ensure full delivery of Diofluor 10%. An infusion pump (Becton-Dickinson) connected to a 60 cc syringe was used to infuse the Diofluor 10% at a constant rate of 6 mL/min (8.4-13.2 pounds per square inches) to allow for consistency in the synchronization of the fluorescein bolus injection and the angiogram acquisition. Photographs were taken with a fluorescence fundus camera at 1-10, 30, 60, 90, 180, and 300 sec after Diofluor 10% administration. The leakiness of CNV was assessed by two independent readers masked to the treatment.

[2] = tested on: human peripheral blood T cells; test: IFNgamma release from T cells stimulated with phytohemagglutanin; format: cell-based; conditions: T-cell
Description: (§3) Targeted tissue concentrations were estimated from in vitro experiments assessing the inhibitory effects of rapamycin on endothelial cell proliferation and cytokine release from immune cells. Human umbilical endothelial cells were activated with Vascular Endothelial Growth Factor (VEGF) and incubated with various concentrations of rapamycin. Cell proliferation was evaluated by quantifying [3}H-thymidine incorporation after 48 hours. […] The IC50 for the release of TNFalpha from Lipopolysaccharide and IFNgamma treated THP-1 cells (monocytic cell line) was ˜1 nM and the IC50 for the release of IFNgamma from human peripheral blood T cells stimulated with phytohemagglutanin was ˜2 nM.

[3] = tested on: choroidal neovascularization (CNV); test: Laser-induced CNV rat model, histological evaluation (CNV area, CD31 positive cell count); format: in vivo, Long Evans rats
Description: as §1
as §2, with “A 30-gauge needle connected to a 10-4, Hamilton syringe that contained 5 μL carboxymethylcellulose (CMC)-based Rapamycin suspension (0.5, 5, 10 or 40 mg/mL) or CMC vehicle alone was inserted 1 mm posterior to the corneoscleral limbus.” left out
Eyes were enucleated and chorioretinal tissues that contained the CNV lesions prepared and fixed for about 18 hours in formic acid alcohol, and then replaced with 70% alcohol until the specimen was processed to wax by a standard method. Slides were stained with mouse anti rat CD31 (Chemicon, UK) by a standard immunohistochemistry protocol. This briefly consisted of removal of endogenous peroxidase enzymes with methanol and hydrogen peroxide, primary antibody as above, and the secondary donkey antibody anti mouse conjugated to biotin. Streptavidin ABC and Vector VIP substrate (Vector labs, Burlingame Calif.) were further added. Haematoxylin was used as a counterstain. Representative images before and after the center of each CNV lesion were taken using the 20× objective of an Olympus BX61 microscope fitted with a Spot RT colour camera (Diagnostic instruments, MI USA). Each image was applied to the standard image analysis macro in the software Image pro to identify the mean of lesion area for each CNV and the mean of CD31 positive cell counts (i.e. endothelial cells) within the CNV lesion area. All measurements were generated by two independent readers masked to the treatments. The data was analyzed in Excel and GraphPad Prism. The 80% correlation found between readers was deemed acceptable.

[4] = tested on: Human umbilical endothelial cells; test: VEGF-activated endothelial cell proliferation, [3H]-thymidine incorporation; format: cell-based; conditions: [3H]-thymidine incorporation after 48 hours
Description: as §3

[5] = tested on: THP-1 cells (monocytic cell line); test: TNFalpha release from Lipopolysaccharide and IFNgamma treated THP-1 cells; format: cell-based; conditions: Homo sapiens
Description: as §3

mTOR = test: Pharmacodynamic evaluation: Ser235/236 phosphorylation of S6 ribosomal protein in chorioretinal tissues (western blot); format: in vivo, Long Evans rats
Description: Upon euthanasia of the animal, the eyes were cut along the equator, separating the anterior and posterior segments. The vitreous was removed and the remaining back of eye (with intact retina, choroid and sclera) was placed in a labeled Nalgene Cryotube, immediately immersed in liquid nitrogen, and stored at −80° C. until ready to use. Upon lysis, tubes containing tissue were brought to room temperature to thaw. Tissues were lysed in 400 μL of lysis buffer (Cell Signaling CAT #: 9803) with protease inhibitor cocktail (Calbiochem CAT #: 539131) and beads in Matrix D Tubes (Q-biogene, CAT #: 6913-100) in the Fast Prep Instrument. Protein concentration of each sample was determined using the Pierce BCA Protein Determination Kit (Pierce, CAT #: 23225) and BSA as a standard. Samples were analyzed by SDS-PAGE, followed by western blotting. Primary antibodies included antibodies against phosphorylated S6 ribosomal protein, S6 ribosomal protein, and beta-actin antibody. Secondary antibodies included goat anti-Rabbit HRP linked antibodies, or Goat anti-Mouse HRP linked antibodies. Bound antibodies were detected using ECL or ECL plus Western Blotting Reagents. Densitometric evaluation was performed on blots scanned by Bio-Rad Multi-Analyst Software, and analyzed in MS Excel and GraphPad Prism.
Rapamycin inhibits mTOR activity, which then down-regulates Ser235/236 phosphorylation of the downstream target of mTOR, the S6 ribosomal protein. In order to evaluate the pharmacodynamic response of intravitreally administered rapamycin in the eye, the serine phosphorylation of S6 protein extracted from chorioretinal tissues was analyzed by western blot, and standardized by the total amount of S6 protein. […] The inhibitory effect of rapamycin on S6 phosphorylation occurred within the first 24 h and lasted for 7 days post-dosing, the longest follow-up timepoint.

With CO[C@H]1C[C@@H]2CC[C@@H](C)[C@@](O)(O2)C(=O)C(=O)N2CCCC[C@H]2C(=O)O[C@H]([C@H](C)C[C@@H]2CC[C@@H](O)[C@H](OC)C2)CC(=O)[C@H](C)/C=C(\C)[C@@H](O)[C@@H](OC)C(=O)[C@H](C)C[C@H](C)/C=C/C=C/C=C/1C [rapamycin, Rapamycin] the “response in the rat CNV model” value ([1]; 5 μg intravitreally injected) was “nearly a complete response”, the “effect on CNV development” value ([1]; rat) was “dose dependent inhibition of CNV development” and the “effect on CNV development” value ([1]; rat, listed as Rapamycin) was “potent inhibitor of CNV; also recorded: inhibited the development of CNV”. The “incidence of developing leaky CNV 2 weeks after laser photocoagulation” value (from here on “incidence … after laser photocoagulation”) ([1]; single intravitreal injection of 0.5 μg rapamycin in CMC, rat) was 65%, the “incidence … after laser photocoagulation” value ([1]; single intravitreal injection of 5 μg rapamycin in CMC, rat) was 5% and the “incidence … after laser photocoagulation” value ([1]; single intravitreal injection of 50 μg rapamycin in CMC, rat) was 2%. For the same compound, the IC50 [2] was ~2 nM, the “reduction in CNV area compared to the vehicle group” value (“reduction in CNV area” for short) ([3]; 0.5 μg intravitreal) was 15% and the “reduction in CNV area” value ([3]; 5 μg intravitreal) was 55%. The “reduction in CNV area” value ([3]; 50 μg intravitreal) was 50%, the “overall reduction in the number of endothelial cells within the CNV area compared to the vehicle group” value ([3]; 50 μg, 5 μg and 0.5 μg intravitreal) was 50-60% and the “CNV area and number of endothelial cells in the CNV lesions after treatment” value ([3]; intravitreal 50, 5, 0.5 μg) was “reduced after rapamycin treatment in a dose-dependent manner”. For the same compound, the IC50 [4] was 69 nM, the IC50 [5] was ~1 nM and the “level of phosphorylated Ser235/236 on S6 ribosomal protein, standardized by total S6 protein” value (mTOR; intravitreal, chorioretinal tissues, day 1, 3, 7 post-dosing, vs untreated or vehicle injected eyes) was “significantly reduced”. The “time within which the inhibitory effect on S6 phosphorylation occurred” value (mTOR; intravitreal, rat) was ≤ 24 h, the “time the inhibitory effect on S6 phosphorylation lasted post-dosing” value (mTOR; intravitreal, rat, longest follow-up timepoint) was 7 days and the “activation of its target mTOR” value (mTOR; rat model of laser-induced CNV) was “suppressed the activation of its target mTOR at all tested time points”.
With CC1(C)O[C@@H]2C[C@H]3[C@@H]4CCC5=CC(=O)C=C[C@]5(C)[C@@]4(F)[C@@H](O)C[C@]3(C)[C@]2(C(=O)CO)O1 [triamcinolone acetonide (TA), triamcinolone acetonide] the “incidence of leaky CNV at the 14-day follow-up” value ([1]; intravitreal dose of 200 μg, rat) was 10%, the “inhibition of CNV area” value ([3]; TA intravitreal 200 μg) was “approximately 50%” and the “inhibition of endothelial cell count” value ([3]; TA intravitreal 200 μg) was ~60%.
